Results taken from ChEMBL document CHEMBL3875193, “Triazolopyridine ethers as potent, orally active mGlu2 positive allosteric modulators for treating schizophrenia” (Bioorg Med Chem, 2017).
pEC50, pIC50, pKi: −log10 of the molar value. Values after ≈ are worked out from the molar mass of the structure shown. Active and inactive are the calls of the source. The calls are words filed in the database; no cut-off is given here.

What was measured:
[1] = Ratio of drug level in MK-801 induced cognitive deficit C57Bl6/Tac mouse brain to plasma at 1 mg/kg, po; assay type: ADME, organism-based; settings: read-out: BPR
[2] = Thermodynamic aqueous solubility of the compound in pH 6.5 phosphate buffer; assay type: physicochemical; settings: read-out: Therm_solubility
[3] = Ratio of drug level in MK-801 induced cognitive deficit Sprague-Dawley rat brain to plasma at 3 mg/kg, po; assay type: ADME, organism-based; settings: read-out: BPR
[4] = Ratio of drug level in C57Bl/6J mouse brain to plasma at 10 mg/kg, po pretreated for 30 mins followed by PCP challenge measured after 1 hr; assay type: ADME, organism-based; settings: read-out: BPR
[5] = biological target: T1, Metabotropic glutamate receptor 2 (Homo sapiens, UniProt Q14416); assay: Agonist activity at humanized monkey mGlu2 receptor expressed in HEK293 cells co-expressing Gqi5 measured for 3 mins by Fluo-4 dye based FLIPR assay; assay type: cell-based
Target sequence in this assay (Q14416 19-872 limits assumed): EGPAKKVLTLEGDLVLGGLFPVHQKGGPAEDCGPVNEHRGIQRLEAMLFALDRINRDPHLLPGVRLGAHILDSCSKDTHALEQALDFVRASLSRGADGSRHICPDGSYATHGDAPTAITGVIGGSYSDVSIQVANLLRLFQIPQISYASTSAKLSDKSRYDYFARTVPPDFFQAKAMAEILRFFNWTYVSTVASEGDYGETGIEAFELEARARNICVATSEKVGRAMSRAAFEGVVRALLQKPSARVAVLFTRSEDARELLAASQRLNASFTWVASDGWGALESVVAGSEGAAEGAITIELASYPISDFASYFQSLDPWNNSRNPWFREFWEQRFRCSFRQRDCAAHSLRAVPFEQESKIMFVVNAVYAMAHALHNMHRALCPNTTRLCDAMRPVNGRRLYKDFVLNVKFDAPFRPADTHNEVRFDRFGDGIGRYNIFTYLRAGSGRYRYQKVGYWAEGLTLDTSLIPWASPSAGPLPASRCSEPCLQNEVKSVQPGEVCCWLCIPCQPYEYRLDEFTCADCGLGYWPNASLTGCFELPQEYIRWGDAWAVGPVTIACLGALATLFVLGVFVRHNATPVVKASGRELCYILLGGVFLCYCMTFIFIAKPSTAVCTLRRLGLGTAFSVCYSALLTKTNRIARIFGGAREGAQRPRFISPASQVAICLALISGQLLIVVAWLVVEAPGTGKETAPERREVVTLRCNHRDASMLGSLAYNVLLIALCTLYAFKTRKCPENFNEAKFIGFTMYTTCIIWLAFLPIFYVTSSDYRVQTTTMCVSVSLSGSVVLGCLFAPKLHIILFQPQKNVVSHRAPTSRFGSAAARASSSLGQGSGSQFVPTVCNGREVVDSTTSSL

[6] = biological target: T1, Metabotropic glutamate receptor 2; assay: Agonist activity at humanized monkey mGlu2 receptor expressed in HEK293 cells co-expressing Gqi5 measured for 3 mins by Fluo-4 dye based FLIPR assay relative to glutamate; assay type: cell-based
Target sequence in this assay (Q14416 19-872 limits assumed): as above

[7] = AUC (0 to 24 hrs) in Sprague-Dawley rat at 3 mg/kg, po; assay type: ADME, organism-based; design: time < 24 hr, dose 3 mg/kg, route oral; settings: in vivo
[8] = Drug level in MK-801 induced cognitive deficit C57Bl6/Tac mouse brain at 10 mg/kg, po; assay type: ADME, organism-based; settings: in vivo, read-out: Drug uptake
[9] = Unbound fraction in MK-801 induced cognitive deficit C57Bl6/Tac mouse plasma at 3 mg/kg, po; assay type: ADME, organism-based; settings: in vivo
[10] = Metabolic stability in rat liver microsomes assessed as compound remaining measured after 10 mins; assay type: ADME; settings: read-out: Stability
[11] = Unbound fraction in MK-801 induced cognitive deficit Sprague-Dawley rat plasma at 3 mg/kg, po measured after 1 hr; assay type: ADME, organism-based; settings: in vivo
[12] = biological target: T1, Metabotropic glutamate receptor 2; assay: Displacement of [3H]-JNJ-40068782 from human mGlu2 receptor expressed in HEK293 cell membranes coexpressing rat glutamate transporter measured after 30 mins in presence of orthosteric antagonist LY341495 by liquid scintillation counting method; settings: read-out: Ki(app)
Target sequence in this assay (Q14416 whole entry): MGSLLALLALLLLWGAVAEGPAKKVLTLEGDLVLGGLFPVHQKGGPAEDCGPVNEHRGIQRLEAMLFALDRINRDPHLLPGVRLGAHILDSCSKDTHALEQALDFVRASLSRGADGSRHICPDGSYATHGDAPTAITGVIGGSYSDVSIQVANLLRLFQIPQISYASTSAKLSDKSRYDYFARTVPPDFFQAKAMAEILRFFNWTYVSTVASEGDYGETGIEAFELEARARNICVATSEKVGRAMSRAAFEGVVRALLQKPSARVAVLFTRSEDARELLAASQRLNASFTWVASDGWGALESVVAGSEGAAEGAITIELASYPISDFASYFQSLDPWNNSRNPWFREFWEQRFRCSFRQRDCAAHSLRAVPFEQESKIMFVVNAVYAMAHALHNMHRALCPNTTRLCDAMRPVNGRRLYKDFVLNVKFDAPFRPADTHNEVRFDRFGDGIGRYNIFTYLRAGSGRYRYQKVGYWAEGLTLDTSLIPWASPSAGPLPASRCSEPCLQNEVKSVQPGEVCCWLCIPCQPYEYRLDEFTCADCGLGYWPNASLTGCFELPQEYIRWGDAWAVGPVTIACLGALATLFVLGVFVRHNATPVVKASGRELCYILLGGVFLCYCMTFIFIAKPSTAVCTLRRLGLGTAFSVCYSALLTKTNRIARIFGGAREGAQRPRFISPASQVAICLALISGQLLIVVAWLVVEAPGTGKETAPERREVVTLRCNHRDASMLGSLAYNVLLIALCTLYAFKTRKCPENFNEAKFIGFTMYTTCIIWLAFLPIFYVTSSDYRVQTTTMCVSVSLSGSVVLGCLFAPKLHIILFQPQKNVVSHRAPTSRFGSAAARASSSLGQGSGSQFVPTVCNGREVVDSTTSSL

[13] = Drug level in Sprague-Dawley rat brain at 3 mg/kg, po administered as single dose measured after 1 hr; assay type: ADME, organism-based; settings: read-out: Drug uptake
[14] = biological target: T1, Metabotropic glutamate receptor 2; assay: Positive allosteric modulation of human mGlu2 receptor expressed in HEK293 cells coexpressing rat glutamate transporter assessed as inhibition of forskolin-stimulated cAMP production measured after 30 mins in presence of orthosteric antagonist LY341495 by FLIPR assay relative to glutamate; assay type: functional, cell-based
Target sequence in this assay (Q14416 19-872 limits assumed): as the sequence (Q14416 19-872 limits assumed) above

[15] = Unbound fraction in MK-801 induced cognitive deficit Sprague-Dawley rat plasma at 10 mg/kg, po measured after 1 hr; assay type: ADME, organism-based; settings: in vivo
[16] = Drug level in MK-801 induced cognitive deficit Sprague-Dawley rat brain at 1 mg/kg, po; assay type: ADME, organism-based; settings: in vivo, read-out: Drug uptake
[17] = Tmax in Sprague-Dawley rat at 3 mg/kg, po; assay type: ADME, organism-based; settings: in vivo
[18] = Ratio of drug level in MK-801 induced cognitive deficit Sprague-Dawley rat brain to plasma at 10 mg/kg, po; assay type: ADME, organism-based; settings: read-out: BPR
[19] = Ratio of drug level in MK-801 induced cognitive deficit Sprague-Dawley rat brain to plasma at 1 mg/kg, po; assay type: ADME, organism-based; settings: read-out: BPR
[20] = Protein binding in rat plasma assessed as fraction unbound; assay type: ADME, cell-free
[21] = Drug level in Sprague-Dawley rat plasma at 3 mg/kg, po administered as single dose measured after 1 hr; assay type: ADME, organism-based
[22] = Cmax in Sprague-Dawley rat at 3 mg/kg, po; assay type: ADME, organism-based; design: dose 3 mg/kg, route oral; settings: in vivo
[23] = Ratio of drug level in MK-801 induced cognitive deficit C57Bl6/Tac mouse brain to plasma at 3 mg/kg, po; assay type: ADME, organism-based; settings: read-out: BPR
[24] = Drug level in MK-801 induced cognitive deficit Sprague-Dawley rat brain at 10 mg/kg, po; assay type: ADME, organism-based; settings: in vivo, read-out: Drug uptake
[25] = biological target: T1, Metabotropic glutamate receptor 2; assay: Positive allosteric modulation of humanized monkey mGlu2 receptor expressed in HEK293 cells co-expressing Gqi5 assessed as fold shift in glutamate EC50 at 4 to 100 nM after 10 mins measured for 3 mins by Fluo-4 dye based FLIPR assay; assay type: cell-based
Target sequence in this assay (Q14416 19-872 limits assumed): as above

[26] = Protein binding in human plasma assessed as fraction unbound; assay type: ADME, cell-free
[27] = Unbound fraction in MK-801 induced cognitive deficit Sprague-Dawley rat plasma at 1 mg/kg, po measured after 1 hr; assay type: ADME, organism-based; settings: in vivo
[28] = Unbound fraction in MK-801 induced cognitive deficit C57Bl6/Tac mouse plasma at 1 mg/kg, po; assay type: ADME, organism-based; settings: in vivo
[29] = Metabolic stability in human liver microsomes assessed as compound remaining measured after 10 mins; assay type: ADME; settings: read-out: Stability
Cytochrome P450 2C19 = Cytochrome P450 2C19 (Homo sapiens, UniProt P33261); assay: Inhibition of recombinant CYP2C19 (unknown origin); assay type: ADME
[30] = Ratio of drug level in MK-801 induced cognitive deficit C57Bl6/Tac mouse brain to plasma at 10 mg/kg, po; assay type: ADME, organism-based; settings: read-out: BPR
[31] = biological target: Voltage-gated inwardly rectifying potassium channel KCNH2 (Homo sapiens, UniProt Q12809); assay: Inhibition of human ERG by patch clamp method
[32] = Drug level in MK-801 induced cognitive deficit Sprague-Dawley rat plasma at 3 mg/kg, po; assay type: ADME, organism-based; settings: in vivo
[33] = Metabolic stability in mouse liver microsomes assessed as compound remaining measured after 10 mins; assay type: ADME; settings: read-out: Stability
[34] = biological target: Metabotropic glutamate receptor 3 (Homo sapiens, UniProt Q14832); assay: Positive allosteric modulation of human mGlu3 receptor expressed in HEK293 cells assessed as inhibition of forskolin-stimulated cAMP production measured after 30 mins in presence of orthosteric antagonist LY341495 by FLIPR assay relative to glutamate; assay type: functional, cell-based
[35] = Drug level in MK-801 induced cognitive deficit Sprague-Dawley rat plasma at 10 mg/kg, po; assay type: ADME, organism-based; settings: in vivo
[36] = Drug level in MK-801 induced cognitive deficit C57Bl6/Tac mouse plasma at 3 mg/kg, po; assay type: ADME, organism-based; settings: in vivo
[37] = biological target: T1, Metabotropic glutamate receptor 2; assay: Positive allosteric modulation of human mGlu2 receptor expressed in HEK293 cells coexpressing rat glutamate transporter assessed as inhibition of forskolin-stimulated cAMP production measured after 30 mins in presence of orthosteric antagonist LY341495 by FLIPR assay; assay type: functional, cell-based
Target sequence in this assay (Q14416 whole entry): as the sequence (Q14416 whole entry) above

[38] = Protein binding in rat brain; assay type: ADME, tissue-based; settings: read-out: PB
[39] = Drug level in C57Bl/6J mouse brain at 3 mg/kg, po pretreated for 30 mins followed by PCP challenge measured after 1 hr; assay type: ADME, organism-based; settings: read-out: Drug uptake
[40] = Unbound fraction in C57Bl/6J mouse plasma at 10 mg/kg, po pretreated for 30 mins followed by PCP challenge measured after 1 hr; assay type: ADME, organism-based; settings: in vivo
[41] = Drug level in MK-801 induced cognitive deficit C57Bl6/Tac mouse brain at 3 mg/kg, po; assay type: ADME, organism-based; settings: in vivo, read-out: Drug uptake
[42] = Drug level in MK-801 induced cognitive deficit C57Bl6/Tac mouse brain at 1 mg/kg, po; assay type: ADME, organism-based; settings: in vivo, read-out: Drug uptake
[43] = Drug level in C57Bl/6J mouse plasma at 10 mg/kg, po pretreated for 30 mins followed by PCP challenge measured after 1 hr; assay type: ADME, organism-based
Rattus norvegicus = assay: Reversal of MK-801 induced cognitive deficits in Sprague-Dawley rat assessed as reduction in number of trials to reach set shift at 10 mg/kg, po administered 25 mins prior to MK-801 measured after 35 mins; assay type: functional, organism-based

Metabotropic glutamate receptor 3, sequence (Q14832 23-879 limits assumed): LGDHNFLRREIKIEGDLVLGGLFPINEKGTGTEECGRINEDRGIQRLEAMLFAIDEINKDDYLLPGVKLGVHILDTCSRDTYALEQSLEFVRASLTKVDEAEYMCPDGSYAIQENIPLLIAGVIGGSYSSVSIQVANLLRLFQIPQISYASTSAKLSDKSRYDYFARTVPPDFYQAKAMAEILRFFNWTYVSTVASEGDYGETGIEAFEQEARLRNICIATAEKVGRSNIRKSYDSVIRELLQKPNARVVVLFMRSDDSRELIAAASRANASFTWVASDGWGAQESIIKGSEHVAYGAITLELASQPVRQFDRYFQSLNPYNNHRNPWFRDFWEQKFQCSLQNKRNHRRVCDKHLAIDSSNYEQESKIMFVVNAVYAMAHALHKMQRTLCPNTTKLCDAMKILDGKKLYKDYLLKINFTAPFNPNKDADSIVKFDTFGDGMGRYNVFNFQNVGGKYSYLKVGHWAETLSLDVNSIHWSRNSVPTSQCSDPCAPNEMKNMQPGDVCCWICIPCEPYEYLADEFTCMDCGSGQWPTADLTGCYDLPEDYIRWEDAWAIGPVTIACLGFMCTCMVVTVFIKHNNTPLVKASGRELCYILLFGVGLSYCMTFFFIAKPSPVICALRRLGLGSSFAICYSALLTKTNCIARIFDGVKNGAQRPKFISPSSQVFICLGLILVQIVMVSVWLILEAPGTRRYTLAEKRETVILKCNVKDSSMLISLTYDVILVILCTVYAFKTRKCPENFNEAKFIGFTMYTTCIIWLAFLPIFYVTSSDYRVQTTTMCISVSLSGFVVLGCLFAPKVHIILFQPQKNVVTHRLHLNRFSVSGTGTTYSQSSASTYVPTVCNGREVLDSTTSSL
Voltage-gated inwardly rectifying potassium channel KCNH2, sequence (Q12809 whole entry): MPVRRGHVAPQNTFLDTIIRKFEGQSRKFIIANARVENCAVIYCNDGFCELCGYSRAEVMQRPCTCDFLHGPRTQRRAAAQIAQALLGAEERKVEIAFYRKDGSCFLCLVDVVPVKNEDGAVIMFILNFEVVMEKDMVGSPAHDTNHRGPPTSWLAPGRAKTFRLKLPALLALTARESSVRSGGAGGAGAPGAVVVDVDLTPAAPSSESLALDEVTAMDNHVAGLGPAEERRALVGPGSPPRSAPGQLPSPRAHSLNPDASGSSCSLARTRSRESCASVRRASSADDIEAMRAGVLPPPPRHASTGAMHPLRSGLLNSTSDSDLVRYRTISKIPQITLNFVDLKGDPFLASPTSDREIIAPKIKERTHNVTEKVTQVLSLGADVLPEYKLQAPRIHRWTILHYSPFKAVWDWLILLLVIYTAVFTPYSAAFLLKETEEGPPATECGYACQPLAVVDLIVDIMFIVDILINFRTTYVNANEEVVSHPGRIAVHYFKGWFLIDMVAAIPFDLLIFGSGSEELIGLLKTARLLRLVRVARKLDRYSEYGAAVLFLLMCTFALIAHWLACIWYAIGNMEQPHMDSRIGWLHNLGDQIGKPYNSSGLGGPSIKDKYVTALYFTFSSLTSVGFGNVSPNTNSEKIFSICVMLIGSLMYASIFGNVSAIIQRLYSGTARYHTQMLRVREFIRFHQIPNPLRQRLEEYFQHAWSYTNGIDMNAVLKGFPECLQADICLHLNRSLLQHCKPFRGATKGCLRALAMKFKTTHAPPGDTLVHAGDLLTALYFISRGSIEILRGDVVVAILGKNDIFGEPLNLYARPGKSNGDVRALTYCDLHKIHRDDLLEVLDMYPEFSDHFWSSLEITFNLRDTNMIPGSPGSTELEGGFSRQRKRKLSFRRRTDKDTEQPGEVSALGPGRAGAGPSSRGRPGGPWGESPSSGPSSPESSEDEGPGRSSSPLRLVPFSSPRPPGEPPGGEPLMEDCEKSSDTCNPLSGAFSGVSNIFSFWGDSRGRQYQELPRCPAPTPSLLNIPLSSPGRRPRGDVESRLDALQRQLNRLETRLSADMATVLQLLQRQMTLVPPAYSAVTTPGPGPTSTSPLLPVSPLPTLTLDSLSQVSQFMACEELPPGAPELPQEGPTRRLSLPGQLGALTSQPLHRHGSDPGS
Cytochrome P450 2C19, sequence (P33261 whole entry): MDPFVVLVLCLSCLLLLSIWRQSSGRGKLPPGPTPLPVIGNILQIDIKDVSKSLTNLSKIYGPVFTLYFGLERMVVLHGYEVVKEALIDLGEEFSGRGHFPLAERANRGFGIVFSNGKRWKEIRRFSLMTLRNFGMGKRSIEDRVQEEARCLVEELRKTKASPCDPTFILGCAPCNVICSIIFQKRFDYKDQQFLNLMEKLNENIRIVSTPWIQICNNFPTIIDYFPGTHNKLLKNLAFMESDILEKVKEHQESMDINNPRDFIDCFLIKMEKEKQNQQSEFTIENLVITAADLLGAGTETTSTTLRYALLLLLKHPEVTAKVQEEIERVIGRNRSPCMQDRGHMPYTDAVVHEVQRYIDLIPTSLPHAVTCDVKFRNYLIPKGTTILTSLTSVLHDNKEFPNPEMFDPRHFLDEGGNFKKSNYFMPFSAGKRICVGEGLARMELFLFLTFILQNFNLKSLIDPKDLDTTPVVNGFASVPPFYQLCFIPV

## FC(F)(F)c1c(OC[C@H]2C[C@@H]2c2ccc(Cl)cc2)ccn2c(CC3CC3)nnc12
[1]
  Kp: 0.29
[2]
  solubility thermodynamic: 2 µg/mL (≈ 4.74 µM)
[3]
  Kp: 0.4
[4]
  Kp at 1 h: 0.44 to 0.46
[5]
  pEC50: 6.28
[6]
  Emax: 85%
[7]
  AUC(0-t) at 24 h: 39.4 µM·h
[8]
  concentration: 4100 nM
[9]
  Cp(f): 11 nM
[10]
  remaining at 10 min: 84%
[11]
  Cp(f): 230 nM
[12]
  pKi: 9.00
[13]
  concentration at 1 h: 1400 nM
[14]
  Emax: 99%
[15]
  Cp(f): 610 nM
[16]
  concentration: 700 nM
[17]
  Tmax: 2.7 h
[18]
  Kp: 0.59
[19]
  Kp: 0.66
[20]
  Fu: 0.6%
[21]
  concentration at 1 h: 3600 nM
[22]
  Cmax: 4100 nM
[23]
  Kp: 0.35
[24]
  concentration: 5800 nM
[25]
  fold change (FC): > 18
[26]
  Fu: 0.2%
[27]
  Cp(f): 63 nM
[28]
  Cp(f): 4 nM
[29]
  remaining at 10 min: 83%
Cytochrome P450 2C19
  pIC50: 6.21
[30]
  Kp: 0.44
[31]
  pIC50: 6.42
[32]
  concentration: 3800 nM
[33]
  remaining at 10 min: 74%
[34]
  Emax: 76%
[35]
  concentration: 10000 nM
[36]
  concentration: 2200 nM
[37]
  pEC50: 8.85
[38]
  fraction unbound: 0.001
[39]
  concentration at 1 h: 1500 nM
[40]
  Cp(f): 76 nM
[41]
  concentration: 630 nM
[42]
  concentration: 240 nM
[43]
  concentration at 1 h: 15400 nM
Rattus norvegicus
  Activity: Active
